Experiments:
Experiment in all cases: combination Emax (second highest fraction inhibited in the dose matrix, 72 h); higher = more inhibition; extreme values may be limits of the assay
[1] = test system: OCUM-1 (Gastric Carcinoma)
In short: (§1)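 After 24 hours at 37°C and 5% CO2 in 1536-well plates, cells in DMEM/F12 or RPMI plus 10% FBS received two-drug dose matrices for 72 hours. Viability came from CellTiter-Glo 2.0 luminescence and was scaled as inhibition, anchored at 0 by vehicle wells and at 1 by blank wells. Combination Emax is taken as the second-highest inhibition in the matrix, and Bliss excess as the observed combination effect less EA + EB − EA·EB, with EA and EB the single-agent effects.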

[2] = test system: HC-1 (Other Blood Carcinomas)
In short: as §1

[3] = test system: SCC-3 (B-Cell Non-Hodgkin's Lymphoma)
In short: as §1

[4] = test system: NCI-H2347 (Lung Adenocarcinoma)
In short: as §1

[5] = test system: ASH-3 (Thyroid Gland Carcinoma)
In short: as §1

[6] = test system: OCUB-M (Breast Carcinoma)
In short: as §1

[7] = test system: KLE (Endometrial Carcinoma)
In short: as §1

BT-20 (Breast Carcinoma) = test system: BT-20 (Breast Carcinoma)
In short: as §1

NB7 (Neuroblastoma) = test system: NB7 (Neuroblastoma)
In short: as §1

NH-12 (Neuroblastoma) = test system: NH-12 (Neuroblastoma)
In short: as §1

EW-18 (Ewing's Sarcoma) = test system: EW-18 (Ewing's Sarcoma)
In short: as §1

[8] = test system: PF-382 (T-Lymphoblastic Leukemia)
In short: as §1

GOTO (Neuroblastoma) = test system: GOTO (Neuroblastoma)
In short: as §1

[9] = test system: NCI-H322M (Lung Adenocarcinoma)
In short: as §1

[10] = test system: NCI-H513 (Other Solid Carcinomas)
In short: as §1

[11] = test system: DG-75 (Burkitt's Lymphoma)
In short: as §1

[12] = test system: TGBC11TKB (Gastric Carcinoma)
In short: as §1

EW-13 (Ewing's Sarcoma) = test system: EW-13 (Ewing's Sarcoma)
In short: as §1

Row | SMILES | combination Emax [1] | combination Emax [2] | combination Emax [3] | combination Emax [4] | combination Emax [5] | combination Emax [6] | combination Emax [7] | combination Emax (BT-20 (Breast Carcinoma)) | combination Emax (NB7 (Neuroblastoma)) | combination Emax (NH-12 (Neuroblastoma)) | combination Emax (EW-18 (Ewing's Sarcoma)) | combination Emax [8] | combination Emax (GOTO (Neuroblastoma)) | combination Emax [9] | combination Emax [10] | combination Emax [11] | combination Emax [12] | combination Emax (EW-13 (Ewing's Sarcoma))
1 | COc1cccc(OCCCN)c1-c1cc(Nc2cnc(C#N)cn2)n[nH]1 [Prexasertib] + O=C(c1cc(Cc2n[nH]c(=O)c3ccccc23)ccc1F)N1CCN(C(=O)C2CC2)CC1 [Olaparib] (first compound max 1 µM, 7x7, partner max 10 µM) | 0.7 | 1 | 1 | 0.378 | 0.694 | 0.701 | 0.431 | 0.799 | 0.749 | 0.893 | 0.764 | 0.897 | 0.858 | 0.83 | 0.295 | 0.827 | 0.952 | 0.698
2 | CCN(CCO)CCCOc1ccc2c(Nc3cc(CC(=O)Nc4cccc(F)c4)[nH]n3)ncnc2c1 [AZD2811] + C=CCn1c(=O)c2cnc(Nc3ccc(N4CCN(C)CC4)cc3)nc2n1-c1cccc(C(C)(C)O)n1 [AZD1775] (first compound max 1 µM, partner max 1 µM) | 0.482 | 0.983 | 0.923 | 0.32 | 0.103 | 0.779 | 0.564 | 0.455 | 0.662 | 0.877 | 0.635 | 0.978 | 0.883 | 0.801 | 0.368 | 0.776 | 0.818 | 0.355
3 | C=CCn1c(=O)c2cnc(Nc3ccc(N4CCN(C)CC4)cc3)nc2n1-c1cccc(C(C)(C)O)n1 [AZD1775] + O=C(c1cc(Cc2n[nH]c(=O)c3ccccc23)ccc1F)N1CCN(C(=O)C2CC2)CC1 [Olaparib] (first compound max 1 µM, partner max 10 µM) | 0.473 | 0.983 | 0.968 | 0.35 | 0.262 | 0.504 | 0.456 | 0.518 | 0.632 | 0.906 | 0.522 | 0.976 | 0.771 | 0.666 | 0.389 | 0.694 | 0.794 | 0.622
4 | Cc1cc2ncnn2cc1Nc1ncc2c(n1)n(C1CCOCC1)c(=O)n2C [AZD7648] + O=C(c1cc(Cc2n[nH]c(=O)c3ccccc23)ccc1F)N1CCN(C(=O)C2CC2)CC1 [Olaparib] (first compound max 10 µM, 7x7, partner max 10 µM) | 0.186 | 0.521 | 0.435 | 0.224 | 0.321 | 0.256 | 0.419 | 0.313 | 0.219 | 0.317 | 0.369 | 0.49 | 0.525 | 0.325 | 0.257 | 0.481 | 0.269 | 0.564
5 | COc1cccc(OCCCN)c1-c1cc(Nc2cnc(C#N)cn2)n[nH]1 [Prexasertib] + CN(C)CCCOc1ccc(-c2ccc3ncc4c(c3c2)n(C2CCOCC2)c(=O)n4C)cn1 [AZD0156] (first compound max 1 µM, 7x7, partner max 1 µM) | 0.818 | 1 | 1 | 0.42 | 0.565 | 0.574 | 0.471 | 0.626 | 0.858 | 0.918 | 0.761 | 0.9 | 0.908 | 0.982 | 0.343 | 0.964 | 0.963 | 0.452
6 | C[C@@H]1COCCN1c1cc(C2([S@](C)(=N)=O)CC2)nc(-c2ccnc3[nH]ccc23)n1 [AZD6738] + O=C(c1cc(Cc2n[nH]c(=O)c3ccccc23)ccc1F)N1CCN(C(=O)C2CC2)CC1 [Olaparib] (first compound max 10 µM, 7x7, partner max 10 µM) | 0.675 | 0.76 | 0.994 | 0.385 | 0.652 | 0.634 | 0.482 | 0.415 | 0.944 | 0.867 | 0.666 | 0.916 | 0.808 | 0.697 | 0.362 | 0.835 | 0.796 | 0.757
7 | CN(C)CCCOc1ccc(-c2ccc3ncc4c(c3c2)n(C2CCOCC2)c(=O)n4C)cn1 [AZD0156] + CCN(CCO)CCCOc1ccc2c(Nc3cc(CC(=O)Nc4cccc(F)c4)[nH]n3)ncnc2c1 [AZD2811] (first compound max 1 µM, 7x7, partner max 1 µM) | 0.332 | 0.379 | 0.445 | 0.148 | 0.155 | 0.727 | 0.334 | 0.198 | 0.276 | 0.674 | 0.678 | 0.823 | 0.649 | 0.123 | 0.136 | 0.365 | 0.325 | 0.332
8 | COc1cccc(OCCCN)c1-c1cc(Nc2cnc(C#N)cn2)n[nH]1 [Prexasertib] + Cc1cc2ncnn2cc1Nc1ncc2c(n1)n(C1CCOCC1)c(=O)n2C [AZD7648] (first compound max 1 µM, 7x7, partner max 10 µM) | 0.803 | 1 | 1 | 0.39 | 0.648 | 0.595 | 0.471 | 0.646 | 0.842 | 0.908 | 0.742 | 0.934 | 0.908 | 0.979 | 0.36 | 0.923 | 0.96 | 0.512
9 | CCN(CCO)CCCOc1ccc2c(Nc3cc(CC(=O)Nc4cccc(F)c4)[nH]n3)ncnc2c1 [AZD2811] + O=C(c1cc(Cc2n[nH]c(=O)c3ccccc23)ccc1F)N1CCN(C(=O)C2CC2)CC1 [Olaparib] (first compound max 1 µM, 7x7, partner max 10 µM) | 0.379 | 0.681 | 0.488 | 0.186 | 0.249 | 0.805 | 0.16 | 0.286 | 0.473 | 0.659 | 0.667 | 0.893 | 0.654 | 0.182 | 0.0855 | 0.307 | 0.408 | 0.701
10 | COc1cccc2c1C(=O)c1c(O)c3c(c(O)c1C2=O)C[C@@](O)(C(=O)CO)C[C@@H]3O[C@H]1C[C@H](N)[C@H](O)[C@H](C)O1 [Doxorubicin] + Cc1cc2ncnn2cc1Nc1ncc2c(n1)n(C1CCOCC1)c(=O)n2C [AZD7648] (first compound max 1 µM, 7x7, partner max 10 µM) | 0.596 | 0.975 | 0.978 | 0.253 | 0.912 | 0.943 | 0.6 | 0.769 | 0.826 | 0.944 | 0.754 | 0.989 | 0.816 | 0.792 | 0.527 | 0.882 | 0.203 | 0.745
11 | C=CCn1c(=O)c2cnc(Nc3ccc(N4CCN(C)CC4)cc3)nc2n1-c1cccc(C(C)(C)O)n1 [AZD1775] + C[C@@H]1COCCN1C2=NC(=NC(=C2)C3(CC3)[S@](=N)(=O)C)C4=C5C=CNC5=NC=C4 [AZD6738] (first compound max 1 µM, partner max 10 µM) | 0.816 | 0.971 | 1 | 0.449 | 0.848 | 0.799 | 0.59 | 0.718 | 0.934 | 0.937 | 0.66 | 0.966 | 0.888 | 0.871 | 0.439 | 0.978 | 0.922 | 0.653
12 | CN(C)CCCOc1ccc(-c2ccc3ncc4c(c3c2)n(C2CCOCC2)c(=O)n4C)cn1 [AZD0156] + C=CCn1c(=O)c2cnc(Nc3ccc(N4CCN(C)CC4)cc3)nc2n1-c1cccc(C(C)(C)O)n1 [AZD1775] (first compound max 1 µM, partner max 1 µM) | 0.548 | 0.994 | 0.941 | 0.335 | 0.203 | 0.209 | 0.531 | 0.476 | 0.6 | 0.877 | 0.556 | 0.954 | 0.865 | 0.77 | 0.393 | 0.759 | 0.895 | 0.444
13 | COc1cccc(OCCCN)c1-c1cc(Nc2cnc(C#N)cn2)n[nH]1 [Prexasertib] + C=CCn1c(=O)c2cnc(Nc3ccc(N4CCN(C)CC4)cc3)nc2n1-c1cccc(C(C)(C)O)n1 [AZD1775] (first compound max 1 µM, partner max 1 µM) | 0.808 | 1 | 1 | 0.481 | 0.848 | 0.954 | 0.674 | 0.839 | 0.938 | 0.944 | 0.723 | 0.942 | 0.905 | 0.974 | 0.505 | 0.995 | 0.991 | 0.611
14 | Cc1cc2ncnn2cc1Nc1ncc2c(n1)n(C1CCOCC1)c(=O)n2C [AZD7648] + CN(C)CCCOc1ccc(-c2ccc3ncc4c(c3c2)n(C2CCOCC2)c(=O)n4C)cn1 [AZD0156] (first compound max 10 µM, 7x7, partner max 1 µM) | 0.211 | 0.386 | 0.299 | 0.336 | 0.332 | 0.4 | 0.36 | 0.413 | 0.213 | 0.153 | 0.391 | 0.478 | 0.163 | 0.368 | 0.133 | 0.409 | 0.247 | 0.325
15 | CCc1c2c(nc3ccc(O)cc13)-c1cc3c(c(=O)n1C2)COC(=O)[C@]3(O)CC [SN-38] + CN(C)CCCOc1ccc(-c2ccc3ncc4c(c3c2)n(C2CCOCC2)c(=O)n4C)cn1 [AZD0156] (first compound max 0.3 µM, 7x7, partner max 1 µM) | 0.635 | 1 | 1 | 0.564 | 0.844 | 0.764 | 0.453 | 0.81 | 0.913 | 0.838 | 0.633 | 0.994 | 0.861 | 0.811 | 0.544 | 0.856 | 0.772 | 0.734

Source: the supplement of paper PMC11061612
